Results reported in patent publication US9615577B2, “Herbicidally active cyclic dione compounds, or derivatives therefor, substituted by a phenyl which has an alkynyl-containing substituent” (Syngenta Limited, priority 2012, dated 2017).

Tests used:
Format in all cases: in vivo
[1] = test system: Alopecurus myosuroides (ALOMY); experiment: Biological Example 2 comparative herbicidal data, post-emergence glasshouse screen; conditions: 312 h, read-out: Post-emergence herbicidal activities (percentage phytotoxicity) ALOMY; for pest or weed control at 30 g/ha: 30 g/ha application rate; for pest or weed control at 8 g/ha: 8 g/ha application rate
Experimental: (§1) Seeds of a variety of test species were sown in standard soil in pots. After cultivation for one day (pre-emergence) or after 8 days cultivation (post-emergence) under controlled conditions in a glasshouse (at 24/16° C., day/night; 14 hours light; 65% humidity), the plants were sprayed with an aqueous spray solution derived from the formulation of the technical active ingredient in acetone/I water (50:50) solution containing 0.5% Tween 20 (polyoxyethelyene sorbitan monolaurate, CAS RN 9005-64-5). The test plants were then grown in a glasshouse under controlled conditions in a glasshouse (at 24/16° C., day/night; 14 hours light; 65% humidity) and watered twice daily. After 13 days for pre and post-emergence, the test was evaluated visually for percentage phytotoxicity to the plant (where 100=total damage to plant; 0=no damage to plant).
(§2) Comparative herbicidal data is given below for certain exemplified compounds with 4-(prop-1-ynyl)-2,6-dimethylphenyl or 4-(chloroethynyl)-2,6-dimethylphenyl headgroups, compared to the corresponding compounds with either 4-ethynyl-2,6-dimethylphenyl or 2,4,6-trimethylphenyl headgroups, as follows. Comparative herbicidal data is also given below for certain exemplified compounds with 4-(prop-1-ynyl)-2-chloro-6-methoxyphenyl headgroups, compared to the corresponding compounds with 4-ethynyl-2-chloro-6-methoxyphenyl or 4-(but-1-ynyl)-2-chloro-6-methoxyphenyl or 4-methyl-2-chloro-6-methoxyphenyl or 2-chloro-6-methoxyphenyl headgroups, as follows.
(§3) Except where specified otherwise, the glasshouse screen for herbicidal activity is substantially the same as that presented in Biological Example 1A (Test 1A) hereinabove. The weed abbreviations are as defined in Biological Example 1A.

[2] = test system: Echinochloa crus-galli (ECHCG); experiment: as above; conditions: 312 h, read-out: Post-emergence herbicidal activities (percentage phytotoxicity) ECHCG; for pest or weed control at 30 g/ha: 30 g/ha application rate; for pest or weed control at 8 g/ha: 8 g/ha application rate
Experimental: as §1, §2, §3

[3] = test system: Setaria faberi (SETFA); experiment: as above; conditions: 312 h, read-out: Post-emergence herbicidal activities (percentage phytotoxicity) SETFA; for pest or weed control at 30 g/ha: 30 g/ha application rate; for pest or weed control at 8 g/ha: 8 g/ha application rate
Experimental: as §1, §2, §3

[4] = test system: Amarantus retroflexus (AMARE); experiment: as above; conditions: Amaranthus retroflexus, read-out: Post-emergence herbicidal activities (percentage phytotoxicity) AMARE; for pest or weed control at 30 g/ha: 30 g/ha application rate; for pest or weed control at 8 g/ha: 8 g/ha application rate
[5] = test system: Abutilon theophasti Medik. (ABUTH); experiment: as above; conditions: read-out: Post-emergence herbicidal activities (percentage phytotoxicity) ABUTH; for pest or weed control at 30 g/ha: 30 g/ha application rate; for pest or weed control at 8 g/ha: 8 g/ha application rate
[6] = test system: Abutilon theophasti Medik. (ABUTH); experiment: Test 1A glasshouse assay for herbicidal activity, pre-emergence; conditions: 312 h, evaluated after 13 days, read-out: percentage phytotoxicity ABUTH
Experimental: as §1
(§4) Alopecurus myosuroides (ALOMY), Setaria faberi (SETFA), Echinochloa crus-galli (ECHCG), Solanum nigrum (SOLNI), Amaranthus retroflexus (AMARE), Ipomoea hederacea (IPOHE), and Abutilon theophasti Medik. (ABUTH, common English name “velvetleaf”). Of these, Alopecurus myosuroides (ALOMY), Setaria faberi (SETFA), and Echinochloa crus-galli (ECHCG) are grassy monocotyledonous weeds.

[7] = test system: Alopecurus myosuroides (ALOMY); experiment: as above; conditions: 312 h, evaluated after 13 days, read-out: percentage phytotoxicity ALOMY
Experimental: as §1, §4

[8] = test system: Amaranthus retroflexus (AMARE); experiment: as above; conditions: 312 h, evaluated after 13 days, read-out: percentage phytotoxicity AMARE
Experimental: as §1, §4

[9] = test system: Echinochloa crus-galli (ECHCG); experiment: as above; conditions: 312 h, evaluated after 13 days, read-out: percentage phytotoxicity ECHCG
Experimental: as §1, §4

[10] = test system: Setaria faberi (SETFA); experiment: as above; conditions: 312 h, evaluated after 13 days, read-out: percentage phytotoxicity SETFA
Experimental: as §1, §4

[11] = test system: Abutilon theophasti Medik. (ABUTH); experiment: Test 1A glasshouse assay for herbicidal activity, post-emergence; conditions: 312 h, evaluated after 13 days, read-out: percentage phytotoxicity ABUTH
Experimental: as §1, §4

[12] = test system: Alopecurus myosuroides (ALOMY); experiment: as above; conditions: 312 h, evaluated after 13 days, read-out: percentage phytotoxicity ALOMY
Experimental: as §1, §4

[13] = test system: Amaranthus retroflexus (AMARE); experiment: as above; conditions: 312 h, evaluated after 13 days, read-out: percentage phytotoxicity AMARE
Experimental: as §1, §4

[14] = test system: Echinochloa crus-galli (ECHCG); experiment: as above; conditions: 312 h, evaluated after 13 days, read-out: percentage phytotoxicity ECHCG
Experimental: as §1, §4

[15] = test system: Setaria faberi (SETFA); experiment: as above; conditions: 312 h, evaluated after 13 days, read-out: percentage phytotoxicity SETFA
Experimental: as §1, §4

Structure (SMILES) | pest or weed control at 30 g/ha [1] | pest or weed control at 30 g/ha [2] | pest or weed control at 30 g/ha [3] | pest or weed control at 30 g/ha [4] | pest or weed control at 30 g/ha [5] | pest or weed control at 250 g/ha [6] | pest or weed control at 250 g/ha [7] | pest or weed control at 250 g/ha [8] | pest or weed control at 250 g/ha [9] | pest or weed control at 250 g/ha [10] | pest or weed control at 250 g/ha [11] | pest or weed control at 250 g/ha [12] | pest or weed control at 250 g/ha [13] | pest or weed control at 250 g/ha [14] | pest or weed control at 250 g/ha [15] | pest or weed control at 8 g/ha [1] | pest or weed control at 8 g/ha [2] | pest or weed control at 8 g/ha [3] | pest or weed control at 8 g/ha [4] | pest or weed control at 8 g/ha [5] | further results
COc1cccc(Cl)c1C1C(=O)CC2(CCOCC2)CC1=O [Compound X-6, reference compound] | 20% | 10% | 10% | 20% | 0% | – | – | – | – | – | – | – | – | – | – | – | – | – | – | – | –
CCC#Cc1cc(Cl)c(C2C(=O)C3CCC(C3)C2=O)c(OC)c1 (centres unmarked) [Compound B-4] | 60% | 80% | 70% | 20% | 0% | 10% | 100% | 40% | 100% | 70% | 70% | 100% | 30% | 100% | 90% | – | – | – | – | – | –
COc1cc(C)cc(Cl)c1C1C(=O)C2CCC(C2)C1=O (centres unmarked) [Compound X-5, reference compound] | 30% | 80% | 60% | 30% | 10% | – | – | – | – | – | – | – | – | – | – | 0% | 0% | 20% | 30% | 0% | –
C#Cc1cc(Cl)c(C2C(=O)CCCC2=O)c(OC)c1 [Compound B-2, 2-(2-Chloro-4-ethynyl-6-methoxy-phenyl)-3-hydroxy-cyclohex-2-en-1-one] | 0% | 80% | 70% | 0% | 0% | 10% | 60% | 10% | 90% | 90% | 0% | 70% | 0% | 100% | 90% | 0% | 0% | 10% | 0% | 0% | –
CC#Cc1cc(C)c(C2C(=O)CC(CC(C)SC)CC2=O)c(C)c1 (centres unmarked) [Compound A-24, 2-(2,6-Dimethyl-4-prop-1-ynyl-phenyl)-5-(2-methylsulfanylpropyl)cyclohexane-1,3-dione] | 90% | 100% | 100% | 0% | 0% | 20% | 90% | 80% | 100% | 100% | 60% | 100% | 60% | 100% | 100% | – | – | – | – | – | pest or weed control at 30 g/ha [11]: 0%; pest or weed control at 30 g/ha [12]: 90%; pest or weed control at 30 g/ha [13]: 0%; pest or weed control at 30 g/ha [14]: 100%; pest or weed control at 30 g/ha [15]: 100%
C#Cc1cc(Cl)c(C2C(=O)C3CCC(C3)C2=O)c(OC)c1 (centres unmarked) [Compound B-3, 3-(2-Chloro-4-ethynyl-6-methoxy-phenyl)bicyclo[3.2.1]octane-2,4-dione] | 30% | 70% | – | 0% | 0% | 100% | 80% | 90% | 90% | 100% | 0% | 80% | 0% | 100% | 90% | 0% | 20% | 20% | 0% | 0% | –
CSC(C)CC1CC(=O)C(c2c(C)cc(C)cc2C)C(=O)C1 (centres unmarked) [Compound X-8, reference compound] | 70% | 70% | 80% | 0% | 0% | – | – | – | – | – | – | – | – | – | – | – | – | – | – | – | –
C#Cc1cc(C)c(C2C(=O)CC(c3ccccn3)CC2=O)c(C)c1 (centres unmarked) [Compound X-4, reference compound] | 60% | 40% | 50% | 0% | 0% | 0% | 70% | 0% | 90% | 100% | 80% | 80% | 0% | 100% | 100% | 40% | 20% | 40% | 0% | 0% | pest or weed control at 30 g/ha ([6]; 30 g/ha): 0%; pest or weed control at 30 g/ha ([7]; 30 g/ha): 0%; pest or weed control at 30 g/ha ([8]; 30 g/ha): 0%; pest or weed control at 30 g/ha ([9]; 30 g/ha): 30%; pest or weed control at 30 g/ha ([10]; 30 g/ha): 40%; pest or weed control at 30 g/ha [11]: 0%; pest or weed control at 30 g/ha [12]: 60%; pest or weed control at 30 g/ha [13]: 0%; pest or weed control at 30 g/ha [14]: 40%; pest or weed control at 30 g/ha [15]: 50%
CSCCC1CC(=O)C(c2c(C)cc(C)cc2C)C(=O)C1 (centres unmarked) [Compound X-7, reference compound] | 30% | 10% | 20% | 0% | 0% | – | – | – | – | – | – | – | – | – | – | 0% | 0% | 0% | 0% | 0% | –
